Data: PMC7763088, “Impact of Different Lipid Ligands on the Stability and IgE-Binding Capacity of the Lentil Allergen Len c 3” (Biomolecules, 2020)
Where two headings read alike, the source gives them in different places.

T1: rLen c 3 (Lens culinaris, UniProt A0AT29)
T1 construct: with the formation of the large fragment 1–80 and the protein without C-terminal Phe93; His8-TrxL (octahistidine-thioredoxin carrier) (N, cleaved yes); made in house; host or cells: Escherichia coli BL-21 (DE3)
T1 sequence (A0AT29 26-118): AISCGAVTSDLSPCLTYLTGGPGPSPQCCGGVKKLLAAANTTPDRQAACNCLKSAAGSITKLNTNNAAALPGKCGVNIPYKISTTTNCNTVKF

B1: bovine α-casein: bovine α-casein (Sigma), control substrate for proteolytic digestion (protein, UniProt P02662 16-214; P02663 16-222, looked up)
Alpha-S1-casein: RPKHPIKHQGLPQEVLNENLLRFFVAPFPEVFGKEKVNELSKDIGSESTEDQAMEDIKQMEAESISSSEEIVPNSVEQKHIQKEDVPSERYLGYLEQLLRLKKYKVPQLEIVPNSAEERLHSMKEGIHAQQKEPMIGVNQELAYFYPELFRQFYQLDAYPSGAWYYVPLGTQYTDAPSFSDIPNPIGSENSEKTTMPLW
Alpha-S2-casein: KNTMEHVSSSEESIISQETYKQEKNMAINPSKENLCSTFCKEVVRNANEEEYSIGSSSEESAEVATEEVKITVDDKHYQKALNEINQFYQKFPQYLQYLYQGPIVLNPWDQVKRNAVPITPTLNREQLSTSEENSKKTVDMESTEVFTKKTKLTEEEKNRLNFLKKISQRYQKFALPQYLKTVYQHQKAMKPWIQPKTKVIPYVRYL

Legend:
[1] = biological target: T1, rLen c 3; design: method as in PMID 28266846; details: among saturated FAs; cited from earlier work
[2] = biological target: T1, rLen c 3; experiment: Effect of lipid ligands on gastrointestinal digestion of rLen c 3; type: in vitro ADME, lentil; details: for Effect of ligand on rLen c 3 degradation rate (proteolytic digestion): gastric then duodenal digestion
Protocol: (§1) Simulation of gastrointestinal digestion in vitro was performed as described in [15]. Briefly, gastric digestion was performed for 2 h, using 50 ng of pepsin (p) (Sigma) per 1 μg of rLen c 3 in 0.1 M HCl, pH 2.0 (final protein concentration 0.05 mM). For duodenal digestion, pH of the mixture resulting from gastric digestion was adjusted to 8.0 by addition of ammonium bicarbonate. The obtained mixture was incubated for 24 h at 37 °C with 2.5 ng of trypsin (t) (Promega, Madison, WI, USA) and 10 ng of α-chymotrypsin (ch) (Sigma) per 1 μg of the substrate. Degree of proteolysis was monitored by sodium dodecyl sulfate polyacrylamide gel electrophoresis (SDS-PAGE) under reducing conditions and reversed-phase high-performance liquid chromatography (RP-HPLC) on Luna C18 column (5 μm, 250 × 4.6 mm; Phenomenex, Torrance, CA, USA) at a flow rate of 0.5 mL/min, using a gradient of acetonitrile concentration from 5 to 65% for 45 min in 0.1% trifluoroacetic acid (TFA). Gel analysis was performed, using a densitometer. Electroblotting and subsequent N-terminal protein sequencing were performed as described. The protein was preheated at 100 °C for 30 min to study the effect of temperature on allergen stability. rLen c 3 was preloaded with various lipid ligands (LTP to lipid molar ratio 1:4) for 10 min, in order to investigate their effects on allergen resistance to proteolytic digest. As a control of the influence of lipid ligands on the work of proteolytic enzymes, the same reactions were carried out, using bovine α-casein (Sigma) as a substrate. Some independent experiments were performed in each case.

[3] = biological target: T1, rLen c 3; experiment: TNS displacement lipid binding assay; design: species or system lentil; details: for IC50: 25 °C, 4 μM TNS, 4 μM rLen c 3; for Change of rLen c 3 affinity for the ligand at acidic pH: pH 2.5 compared with pH 7.4
Protocol: The ability of rLen c 3 to bind lipids was assayed by monitoring the displacement of the fluorescent probe TNS. Fluorescence intensity was measured at 25 °C with a F-2710 spectrofluorimeter (Hitachi, Tokyo, Japan), using a […] slit width for both excitation (λ = 320 nm) and emission (λ = 437 nm) and the measurement taken for no longer than 1.5–2 s. After equilibrating TNS (4 μM) in 10 mM phosphate buffer, pH 7.4, or 150 mM sodium chloride, pH 2.5, for 2 min with gentle mixing, the 2 mM of competing ligand was titrated into the 2 mL of 4 μM rLen c 3 solution in 1 μL aliquots. The resulting data were fitted by using a sigmoidal curve-fitting in GraphPad Prism from which the concentration able to displace 50% of the TNS (IC50) was calculated. The dependence of the ligand binding on temperature was performed at 20, 40, 60, 90, and 20 °C, after cooling down as previously described. Temperature was checked with a temperature probe in the cuvette. Each experiment was performed in triplicate, independently.

[4] = biological target: T1, rLen c 3; experiment: Effect of lipid ligands on secondary structure and thermostability of rLen c 3 (CD spectroscopy); type: physicochemical, lentil; details: for Effect of ligand on rLen c 3 thermostability (resistance to thermal denaturation): heating up to 98.5 °C; for Effect of ligand on rLen c 3 thermostability (resistance to thermal denaturation) / Recovery of rLen c 3 structure after cooling down in the presence of ligand: pH 7.4, ligand 1 mM; for Recovery of rLen c 3 structure after cooling down in the presence of ligand: cooling down to 20 °C after 98.5 °C
Protocol: Circular dichroism spectra were recorded at different temperatures, using a J-810 spectropolarimeter (Jasco, Hachioji, Tokyo, Japan) in a 0.1 cm path length quartz cell (Hellma GmbH & Co. KG, Mullheim, Germany) in the 190–250 nm range, and 0.2, using solutions of rLen c 3 in 10 mM phosphate buffer, pH 7.4, or 150 mM sodium chloride, pH 2.5, simulated gastric fluid, at a concentration of 17 µM. Fatty acids or lysolipids were added at a final concentration of 1 mM. Each experiment was performed twice, independently.

[5] = test system: pepsin; experiment: In vitro gastric digestion (SDS-PAGE); type: in vitro ADME; details: first 5 min; control substrate
Protocol: as §1, with “As a control of the influence of lipid ligands on the work of proteolytic enzymes, the same reactions were carried out, using bovine α-casein (Sigma) as a substrate. Some independent experiments were performed in each case.” left out

[6] = 10 mM phosphate buffer, pH 7.4, read-out: IC50 (TNS displacement)
[7] = 150 mM sodium chloride, pH 2.5, read-out: IC50 (TNS displacement)

Row | Molecule | Binding capacity / affinity of Len c 3 for saturated fatty acids [1] | Effect of ligand on rLen c 3 degradation rate (proteolytic digestion) ([2]; LTP to lipid molar ratio 1:4) | IC50 [3, 6] [µM] | IC50 [3, 7] [µM] | Effect of ligand on rLen c 3 thermostability (resistance to thermal denaturation) [4] | Change of rLen c 3 affinity for the ligand at acidic pH [3] | Effect of protein preheating before digestion in the presence of ligand on rate of allergen degradation ([2]; after 4 and 24 h, effect more pronounced with LPPC) | Ability of rLen c 3 to bind the ligand after heating and cooling down ([3]; pH 7.4, heated from 20 to 90 °C, then cooled down to 20 °C) | Recovery of rLen c 3 structure after cooling down in the presence of ligand [4] | Effect of ligand on secondary structure of rLen c 3 ([4]; pH 7.4, 20 °C, ligand 1 mM) | Degradation of rLen c 3 in the presence of ligand ([2]; 24 h of duodenal digestion, LTP to lipid molar ratio 1:4) | IC50 ([3]; IC50 (TNS displacement), 10 mM phosphate buffer, pH 7.4) [µM] | IC50 ([3]; IC50 (TNS displacement), 150 mM sodium chloride, pH 2.5) [µM] | Degradation by pepsin [5]
1 | CCCCCCCCCCCCCCCCCCCC(=O)O [ARA, arachidic C20:0] | lower affinity |  |  |  |  |  |  |  |  |  |  |  |  | 
2 | CCCCCCCCCCCCCCCCCCCCCC(=O)O [BEH, behenic (docosanoic) acid] | lower affinity | slightly accelerated the allergen proteolysis | 5.9 ± 0.2 | 6.2 ± 0.1 | slight protective effect |  |  |  |  |  |  |  |  | 
3 | CCCCCCCCCCCC(=O)O [LAU, lauric acid] | highest binding capacities | quickly digested by trypsin/chymotrypsin | 2.1 ± 0.2 | 2.1 ± 0.01 | slight protective effect | remained unchanged |  |  |  |  |  |  |  | 
4 | CCCCCCCCCCCCCCCC(=O)OC[C@@H](O)COP(=O)([O-])OCC[N+](C)(C)C [LPPC, lyso-palmitoyl phosphatidylcholine] |  | to a lesser extent, LPPC slowed down the allergen degradation | 7.7 ± 0.02 | 7.3 ± 0.01 | a complete denaturation of the protein did not occur even at 98.5 °C | slightly increased | slightly increased | not restored | recovery of the protein structure was not observed | increased the percentage of α-helices |  |  |  | 
5 | CCCCCCCC/C=C\CCCCCCCC(=O)O [OLE, oleic acid] |  | more pronounced | 2.4 ± 0.1 | 2.6 ± 0.1 | increased the rLen c 3 thermostability | decreased |  |  | partial protein renaturation |  | ~ 55% |  |  | 
6 | CCCCCCCCCCCCCCCCCC(=O)O [STE, stearic acid] |  | slowed down the allergen degradation |  |  | increased the rLen c 3 thermostability | decreased |  |  | partial protein renaturation |  |  | 4.5 ± 0.1 | 5.1 ± 0.1 | 
7 | B1 |  |  |  |  |  |  |  |  |  |  |  |  |  | almost completely degraded
